Data on five molecules can be found in patent US11780901B2, “Analogues of parathyroid hormone (1-34) that function as agonists of the parathyroid hormone receptor-1 and display modified activity profiles” (Wisconsin Alumni Research Foundation, priority 2013, dated 2023).

Holding throughout (assay type): cell-based
The subject of assay [1] is PTHR1 and PTHR2. Description: Tolerance pattern of β residues for PTHR1 and PTHR2 activation. Also noted: key: “*” denotes potent PTHR1-selective agonism; “#” denotes potent PTHR2-selective agonism; “*#” denotes potent agonism of both PTHR1 and PTHR2. Conditions: PTHR1 vs PTHR2 agonism. An excerpt: Enhanced selectivity via double α→β replacement.
Assay [2] has as its target T1, PTHR2 (Homo sapiens, UniProt P49190). Description: PTHR2 activation, cAMP production (GloSensor) in HEK293 cells. Conditions: for PTHR2 Activation: Derivative EC50/PTH EC50: normalized to EC50 of PTH(1-34)-NH2 ([…] printed), cAMP production. Also noted: expressed in transfected cells; key to PTHR2 Activation: Derivative EC50/PTH EC50: *** denotes poor tolerance of β amino acid for PTHR2 activation. The text has this:
The assays employ HEK-293 cells that have been engineered to express the appropriate receptor. GloSensor-based detection of cAMP provides a read-out of receptor activation. […] (Carter, P. H. et al. Actions of the Small Molecule Ligands SW106 and AH-3960 on the Type-1 Parathyroid Hormone Receptor. Molecular Endocrinology 29, 307-321 (2015).)
FIGS. 10A and 10B depict dose-response curves of PTHR1 activation (FIG. 10A) and PTHR2 activation (FIG. 10B) in HEK293 cells stably expressing PTHR1 or PTHR2. For PTHR1 activation and all the binding data, data represent mean±s.e.m from three independent measurements; For PTHR2 activation, data represent mean±s.e.m from four independent measurements. Curves were fit to the data using a four-parameter sigmoidal dose-response equation.

For assay [3], the target named is T2, PTHR1 (Homo sapiens, UniProt Q03431).
T2 sequence (Q03431 27-593): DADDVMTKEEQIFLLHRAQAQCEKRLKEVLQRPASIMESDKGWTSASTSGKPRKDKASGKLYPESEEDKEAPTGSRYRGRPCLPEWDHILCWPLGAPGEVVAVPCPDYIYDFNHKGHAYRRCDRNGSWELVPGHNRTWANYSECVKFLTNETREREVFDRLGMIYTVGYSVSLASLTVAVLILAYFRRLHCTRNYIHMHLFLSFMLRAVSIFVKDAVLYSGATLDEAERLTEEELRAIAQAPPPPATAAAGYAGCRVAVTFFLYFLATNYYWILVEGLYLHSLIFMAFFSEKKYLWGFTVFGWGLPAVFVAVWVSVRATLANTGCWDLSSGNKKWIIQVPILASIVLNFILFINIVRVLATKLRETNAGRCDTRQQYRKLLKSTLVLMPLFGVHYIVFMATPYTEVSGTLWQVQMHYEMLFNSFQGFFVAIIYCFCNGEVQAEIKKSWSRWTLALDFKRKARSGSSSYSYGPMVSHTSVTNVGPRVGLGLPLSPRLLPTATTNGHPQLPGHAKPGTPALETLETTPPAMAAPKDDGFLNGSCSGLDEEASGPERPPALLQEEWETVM
Description: PTHR1 activation, cAMP production (GloSensor) in HEK293 cells. More on the design: expressed in transfected cells. Conditions: for PTHR1 Activation: Derivative EC50/PTH EC50: normalized to EC50 of PTH(1-34)-NH2 ([…]), cAMP production. (Cyclic AMP is a second messenger, typically raised through Gs and lowered through Gi signalling.)

Assay [4] concerns the target T2, PTHR1. Description: Wash-out assay, duration of PTHR1 activation. Also noted: expressed in transfected cells; host or cells: cells stably expressing PTHR1. An excerpt: (§1) Duration of activation for PTHR1 and PTHR2. To assess the duration of PTHR1 and PTHR2 activation induced by α/β-peptides 14 and 15, the time course of cAMP production by each receptor was examined after stimulation with an agonist and subsequent washing of the cells to remove unbound peptide (wash-out assay). […] During the initial “ligand-on” phase, cells stably expressing PTHR1 or PTHR2 were stimulated with an agonist concentration corresponding to ˜EC80; the medium contained D-luciferin. […] After the addition of fresh medium containing D-luciferin, the luminescence decay is measured. The area under the “ligand-off” curve (AUC) reflects the duration of signaling, which may be related to residence time of the agonist on the receptor but could have other origins at the molecular level.

For assay [5], the target named is T1, PTHR2. Description: Wash-out assay, duration of PTHR2 activation. Also noted: expressed in transfected cells; host or cells: cells stably expressing PTHR2.
Description: as §1

Where [6] appears, read: HEK-293 cells, GloSensor cAMP, read-out: EC50 (nM) of PTHR2 Activation.
Setting [7] is: read-out: Normalized ligand-on Emax.
[8] abbreviates: HEK-293 cells, GloSensor cAMP, read-out: EC50 (nM) of PTHR1 Activation.

Molecules are shown by their SMILES. Read-outs that look alike come from different tables or passages of the source. Starred links: 1 amine or outer side, 2 acyl side, 3 side chain; linkers in the order of their positions; H or OH if unused. Non-standard residues stand in square brackets, D forms with d. Residues, ends and D or L forms follow the SMILES beside them. X2 = CCCC[C@@H](CN[*:1])C(=O)[*:2]; X1 = CCCC[C@H](CN[*:1])C(=O)[*:2] A value given as a limit tells only on which side of the number the result lay.

T1 sequence (P49190 25-550): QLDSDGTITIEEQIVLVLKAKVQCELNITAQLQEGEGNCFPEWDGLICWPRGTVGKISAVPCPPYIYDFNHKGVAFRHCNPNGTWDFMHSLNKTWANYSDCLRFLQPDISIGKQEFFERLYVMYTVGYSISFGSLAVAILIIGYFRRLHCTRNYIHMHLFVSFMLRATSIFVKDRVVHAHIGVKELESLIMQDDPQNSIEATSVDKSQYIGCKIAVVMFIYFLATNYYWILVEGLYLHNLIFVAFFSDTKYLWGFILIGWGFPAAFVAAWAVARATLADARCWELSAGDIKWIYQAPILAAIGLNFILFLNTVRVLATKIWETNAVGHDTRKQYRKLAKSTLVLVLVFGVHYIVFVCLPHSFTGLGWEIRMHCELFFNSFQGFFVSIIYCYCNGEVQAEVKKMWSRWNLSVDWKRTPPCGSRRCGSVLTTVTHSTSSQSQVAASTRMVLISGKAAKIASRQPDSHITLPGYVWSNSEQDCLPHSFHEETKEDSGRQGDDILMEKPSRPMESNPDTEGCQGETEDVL

A word on the EC50: it is the midpoint of the concentration-response curve. As to `CC[C@H](C)[C@H](NC(=O)[C@H](CCC(=O)O)NC(=O)[C@H](CO)NC(=O)[C@@H](NC(=O)[C@@H](N)CO)C(C)C)C(=O)N[C@@H](CCC(N)=O)C(=O)N[C@H](CC(=O)N[C@@H](CCSC)C(=O)N[C@@H](Cc1c[nH]cn1)C(=O)N[C@@H](CC(N)=O)C(=O)N[C@@H](CC(C)C)C(=O)NCC(=O)N[C@@H](CCCCN)C(=O)N[C@@H](Cc1c[nH]cn1)C(=O)N[C@@H](CC(C)C)C(=O)N[C@@H](CC(N)=O)C(=O)N[C@@H](CO)C(=O)N[C@@H](CCSC)C(=O)N[C@@H](CCC(=O)O)C(=O)N[C@@H](CCCNC(=N)N)C(=O)N[C@H](C(=O)N[C@@H](CCC(=O)O)C(=O)N[C@@H](Cc1c[nH]c2ccccc12)C(=O)N[C@@H](CC(C)C)C(=O)N[C@@H](CCCNC(=N)N)C(=O)N[C@@H](CCCCN)C(=O)N[C@@H](CCCCN)C(=O)N[C@@H](CC(C)C)C(=O)N[C@@H](CCC(N)=O)C(=O)N[C@@H](CC(=O)O)C(=O)N[C@H](C(=O)N[C@@H](Cc1c[nH]cn1)C(=O)N[C@@H](CC(N)=O)C(=O)N[C@@H](Cc1ccccc1)C(N)=O)C(C)C)C(C)C)CC(C)C` [SEQ. ID. NO: 44], the “Tolerance Pattern of β AA” value in assay [1] is recorded as “*”. Moreover, the EC50 in assay [2] (setting [6]) is 35 ± 2.84 nM.
The Emax is the greatest response seen or fitted, relative to the assay's reference. Turning to `CC[C@H](C)[C@H](NC(=O)[C@H](CCC(=O)O)NC(=O)[C@H](CO)NC(=O)[C@@H](NC(=O)[C@@H](N)CO)C(C)C)C(=O)N[C@@H](CCC(N)=O)C(=O)N[C@@H](CC(C)C)C(=O)N[C@@H](CCSC)C(=O)N[C@@H](Cc1c[nH]cn1)C(=O)N[C@@H](CC(N)=O)C(=O)N[C@@H](CC(C)C)C(=O)NCC(=O)N[C@@H](CCCCN)C(=O)N[C@@H](Cc1c[nH]cn1)C(=O)N[C@@H](CC(C)C)C(=O)N[C@@H](CC(N)=O)C(=O)N[C@@H](CO)C(=O)N[C@@H](CCSC)C(=O)N[C@@H](CCC(=O)O)C(=O)N[C@@H](CCCNC(=N)N)C(=O)N[C@H](C(=O)N[C@@H](CCC(=O)O)C(=O)N[C@@H](Cc1c[nH]c2ccccc12)C(=O)N[C@@H](CC(C)C)C(=O)N[C@@H](CCCNC(=N)N)C(=O)N[C@@H](CCCCN)C(=O)N[C@@H](CCCCN)C(=O)N[C@@H](CC(C)C)C(=O)N[C@@H](CCC(N)=O)C(=O)N[C@@H](CC(=O)O)C(=O)N[C@H](C(=O)N[C@@H](Cc1c[nH]cn1)C(=O)N[C@@H](CC(N)=O)C(=O)N[C@@H](Cc1ccccc1)C(N)=O)C(C)C)C(C)C` [PTH(1-34)-NH2, reference compound], the Emax in assay [3] (HEK293), in assay [2] (HEK293), in assay [4] (setting [7]) and in assay [5] (setting [7]) was 100% each time. Moreover, the EC50 in assay [2] (setting [6]) was 0.97 nM; in assay [2] (Table 5, HEK293 cells stably expressing PTHR2, read-out: PTHR2 EC50) it was 1.07 ± 0.14 nM. Moreover, the “Normalized ligand-off AUC” value is 100 in assay [4] (PTHR1, after washout, PTH(1-34)-NH2 = 100) and 100 in assay [5] (PTHR2, after washout, PTH(1-34)-NH2 = 100).
Regarding `CC[C@H](C)[C@H](NC(=O)[C@H](CCC(=O)O)NC(=O)[C@H](CO)NC(=O)[C@@H](NC(=O)[C@@H](N)CO)C(C)C)C(=O)N[C@@H](CCC(N)=O)C(=O)NC[C@@H](CC(C)C)C(=O)N[C@@H](CCSC)C(=O)N[C@@H](Cc1c[nH]cn1)C(=O)N[C@@H](CC(N)=O)C(=O)N[C@@H](CC(C)C)C(=O)NCC(=O)N[C@@H](CCCCN)C(=O)N[C@@H](Cc1c[nH]cn1)C(=O)N[C@@H](CC(C)C)C(=O)N[C@@H](CC(N)=O)C(=O)N[C@@H](CO)C(=O)N[C@@H](CCSC)C(=O)N[C@@H](CCC(=O)O)C(=O)N[C@@H](CCCNC(=N)N)C(=O)N[C@H](C(=O)N[C@@H](CCC(=O)O)C(=O)N[C@@H](Cc1c[nH]c2ccccc12)C(=O)N[C@@H](CC(C)C)C(=O)N[C@@H](CCCNC(=N)N)C(=O)N[C@@H](CCCCN)C(=O)N[C@@H](CCCCN)C(=O)N[C@@H](CC(C)C)C(=O)N[C@@H](CCC(N)=O)C(=O)N[C@@H](CC(=O)O)C(=O)N[C@H](C(=O)N[C@@H](Cc1c[nH]cn1)C(=O)N[C@@H](CC(N)=O)C(=O)N[C@@H](Cc1ccccc1)C(N)=O)C(C)C)C(C)C` [SEQ. ID. NO: 28], the “Tolerance Pattern of β AA” value in assay [1] is listed as “*”. The values for the EC50 in assay [3] (setting [8]) and in assay [2] (setting [6]) were 0.36 ± 0.11 nM and 41.4 ± 5.18 nM, respectively. In addition, the “PTHR1 Activation: Derivative EC50/PTH EC50” value in assay [3] is 0.95. Further, the “PTHR2 Activation: Derivative EC50/PTH EC50” value in assay [2] is on record as 47.64.
On the same counts, the results for `CCCC[C@H](CNC(=O)[C@H](CC(C)C)NC(=O)[C@H](CCC(N)=O)NC(=O)[C@@H](NC(=O)[C@H](CCC(=O)O)NC(=O)[C@H](CO)NC(=O)[C@@H](NC(=O)[C@@H](N)CO)C(C)C)[C@@H](C)CC)C(=O)N[C@@H](Cc1c[nH]cn1)C(=O)N[C@@H](CC(N)=O)C(=O)N[C@@H](CC(C)C)C(=O)NCC(=O)N[C@@H](CCCCN)C(=O)N[C@@H](Cc1c[nH]cn1)C(=O)N[C@@H](CC(C)C)C(=O)N[C@@H](CC(N)=O)C(=O)N[C@@H](CO)C(=O)N[C@@H](CCSC)C(=O)N[C@@H](CCC(=O)O)C(=O)N[C@@H](CCCNC(=N)N)C(=O)N[C@H](C(=O)N[C@@H](CCC(=O)O)C(=O)N[C@@H](Cc1c[nH]c2ccccc12)C(=O)N[C@@H](CC(C)C)C(=O)N[C@@H](CCCNC(=N)N)C(=O)N[C@@H](CCCCN)C(=O)N[C@@H](CCCCN)C(=O)N[C@@H](CC(C)C)C(=O)N[C@@H](CCC(N)=O)C(=O)N[C@@H](CC(=O)O)C(=O)N[C@H](C(=O)N[C@@H](Cc1c[nH]cn1)C(=O)N[C@@H](CC(N)=O)C(=O)N[C@@H](Cc1ccccc1)C(N)=O)C(C)C)C(C)C` [SEQ. ID. NO: 29] (H-SVSEIQL[X1]HNLGKHLNSMERVEWLRKKLQDVHNF-NH2; N-terminus assumed) are “*”, 0.4 ± 0.07 nM, > 1000 nM, 1.05 and “***”.
For the molecule `CCCC[C@@H](CNC(=O)[C@H](CC(C)C)NC(=O)[C@H](CCC(N)=O)NC(=O)[C@@H](NC(=O)[C@H](CCC(=O)O)NC(=O)[C@H](CO)NC(=O)[C@@H](NC(=O)[C@@H](N)CO)C(C)C)[C@@H](C)CC)C(=O)N[C@@H](Cc1c[nH]cn1)C(=O)N[C@@H](CC(N)=O)C(=O)N[C@@H](CC(C)C)C(=O)NCC(=O)N[C@@H](CCCCN)C(=O)N[C@@H](Cc1c[nH]cn1)C(=O)N[C@@H](CC(C)C)C(=O)N[C@@H](CC(N)=O)C(=O)N[C@@H](CO)C(=O)N[C@@H](CCSC)C(=O)N[C@@H](CCC(=O)O)C(=O)N[C@@H](CCCNC(=N)N)C(=O)N[C@H](C(=O)N[C@@H](CCC(=O)O)C(=O)N[C@@H](Cc1c[nH]c2ccccc12)C(=O)N[C@@H](CC(C)C)C(=O)N[C@@H](CCCNC(=N)N)C(=O)N[C@@H](CCCCN)C(=O)N[C@@H](CCCCN)C(=O)N[C@@H](CC(C)C)C(=O)N[C@@H](CCC(N)=O)C(=O)N[C@@H](CC(=O)O)C(=O)N[C@H](C(=O)N[C@@H](Cc1c[nH]cn1)C(=O)N[C@@H](CC(N)=O)C(=O)N[C@@H](Cc1ccccc1)C(N)=O)C(C)C)C(C)C` [SEQ. ID. NO: 37] (H-SVSEIQL[X2]HNLGKHLNSMERVEWLRKKLQDVHNF-NH2; N-terminus assumed), the “Tolerance Pattern of β AA” value in assay [1] is reported as “*”. Besides, the EC50 in assay [3] (setting [8]) was 0.38 ± 0.07 nM; in assay [3] (Table 8, hPTHR1, read-out: PTHR1 EC50), 10.3 ± 1.65 nM; in assay [2] (setting [6]), 10.3 ± 1.65 nM. Further, the “PTHR1 Activation: Derivative EC50/PTH EC50” value in assay [3] turned out to be 1.00. In assay [2], the “PTHR2 Activation: Derivative EC50/PTH EC50” value turned out to be 11.85.
